Test results reported in PubChem BioAssay (NCI).
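Test compounds were applied to cells in 96-well plates for 48 hours at 5 doses. TGI is the concentration that stops growth completely.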

Legend:
Experiment in all cases: growth of human tumour cells (NCI), 48 h
HOP-62 NSCLC = test system: HOP-62 NSCLC
UACC-62 melanoma = test system: UACC-62 melanoma
SF-539 CNS = test system: SF-539 CNS
SR leukemia = test system: SR leukemia
SF-295 CNS = test system: SF-295 CNS
SW-620 colon = test system: SW-620 colon
RXF 393 renal = test system: RXF 393 renal
OVCAR-5 ovarian = test system: OVCAR-5 ovarian
HCC-2998 colon = test system: HCC-2998 colon
786-0 renal = test system: 786-0 renal
SNB-19 CNS = test system: SNB-19 CNS
SK-MEL-28 melanoma = test system: SK-MEL-28 melanoma
HT29 colon = test system: HT29 colon
NCI-H23 lung = test system: NCI-H23 lung
HOP-92 NSCLC = test system: HOP-92 NSCLC
SK-OV-3 ovarian = test system: SK-OV-3 ovarian
U251 CNS = test system: U251 CNS
HL-60(TB) leukemia = test system: HL-60(TB) leukemia

Structure (SMILES) | TGI (HOP-62 NSCLC) | TGI (UACC-62 melanoma) | TGI (SF-539 CNS) | TGI (SR leukemia) | TGI (SF-295 CNS) | TGI (SW-620 colon) | TGI (RXF 393 renal) | TGI (OVCAR-5 ovarian) | TGI (HCC-2998 colon) | TGI (786-0 renal) | TGI (SNB-19 CNS) | TGI (SK-MEL-28 melanoma) | TGI (HT29 colon) | TGI (NCI-H23 lung) | TGI (HOP-92 NSCLC) | TGI (SK-OV-3 ovarian) | TGI (U251 CNS) | TGI (HL-60(TB) leukemia)
COC(=O)/C(=N\O)C(C(=O)C=C(C)C)C(=O)C(=O)Nc1ccccc1C (configuration not stated) | > 100 µM | > 100 µM | > 100 µM | > 100 µM | > 100 µM | > 100 µM | > 100 µM | > 100 µM | > 100 µM | > 100 µM | > 100 µM | > 100 µM | > 100 µM | > 100 µM | > 100 µM | > 100 µM | > 100 µM | > 100 µM
N#Cc1ccccc1Nc1ccccc1S | > 100 µM | 37.8 µM | 35.8 µM | > 100 µM | 65.4 µM | 47.1 µM | 53 µM | 97.8 µM | – | 78.3 µM | 60.5 µM | > 100 µM | > 100 µM | > 100 µM | 80.3 µM | > 100 µM | – | > 100 µM
NNC(=S)N/N=C/C(Cl)=C(\Cl)C(=O)O | – | > 100 µM | > 100 µM | > 100 µM | > 100 µM | > 100 µM | > 100 µM | > 100 µM | > 100 µM | > 100 µM | > 100 µM | > 100 µM | > 100 µM | > 100 µM | > 100 µM | – | > 100 µM | > 100 µM
COc1cc(C2C(Cl)C(=O)N2NC(=O)Cc2ccccc2)ccc1O (configuration not stated) | > 100 µM | > 100 µM | – | 83.4 µM | > 100 µM | > 100 µM | > 100 µM | > 100 µM | > 100 µM | > 100 µM | > 100 µM | > 100 µM | > 100 µM | > 100 µM | – | > 100 µM | > 100 µM | 80.7 µM
Nc1ccc(C(=O)NN2C(=O)C(Cl)C2c2cccc([N+](=O)[O-])c2)cc1 (configuration not stated) | 41.6 µM | 37.1 µM | 35.1 µM | – | 43.1 µM | 40 µM | – | 37.7 µM | 39.5 µM | 33.1 µM | 32.1 µM | 38.5 µM | 37.9 µM | 34.5 µM | 40.7 µM | 33.3 µM | 27.3 µM | 41.4 µM
CCCCCC(=O)Cc1cc(OC)cc2c1C(=O)Oc1cc(O)c(C(=O)O)c(CC(=O)CCCCC)c1O2 | > 100 µM | 49.6 µM | – | > 100 µM | > 100 µM | > 100 µM | – | > 100 µM | > 100 µM | 37.7 µM | – | – | > 100 µM | 37.1 µM | – | > 100 µM | 29.3 µM | > 100 µM
CCCOCN1COCN=C1NC#N | > 100 µM | > 100 µM | > 100 µM | – | > 100 µM | 32.3 µM | 29.8 µM | > 100 µM | > 100 µM | 45.1 µM | > 100 µM | > 100 µM | > 100 µM | > 100 µM | > 100 µM | > 100 µM | 43.8 µM | > 100 µM
